SMILES strings stand for the structures. Read-outs that look alike come from different tables or passages of the source.

What all share (assay type): biochemical
The target in one assay is T1, mouse plasma DPPIV (Mus musculus, UniProt P28843).
T1 construct: from tissue; host or cells: mouse plasma (C57BL/6, EDTA)
Briefly: DPPIV enzymatic activity in mouse plasma. Particulars: C57BL/6 mouse plasma; H-Gly-Pro-AMC substrate. How it is done:
Approximately 500 μL of whole blood from one C57BL/6 mouse was harvested into BD Microtainer® tubes (K2) EDTA (#365974, Becton Dickinson and Co.) via terminal cardiac puncture. The blood sample was immediately centrifuged at approximately 9000 g at 4° C. for 5 minutes. Plasma was separated and stored at −80° C. in aliquots of 300 μL. To assay baseline DPPIV enzymatic exopeptidase activity, 5 μL of thawed, mouse plasma was diluted (1:5) in buffer (100 mM Tris-HCl, 400 mM NaCl, 50 mM salicylic acid, 1 mM EDTA, pH 7.5) and mixed with 35 µL of the same buffer before being pre-incubated with different concentrations of 10 μL of test compounds or DMSO vehicle for 15 minutes at 37° C. in 96-well black plates (Nunc, #237108). After pre-incubation, 50 μL of 200 μM dipeptide substrate H-Gly-Pro-AMC (Bachem, #L-1225) was added to the mixture. The assay was performed for 1 hour at 37° C. 7-Amino-4-Methylcoumarin (AMC) release was detected measuring fluorescence at an excitation wavelength of 360 nm and an emission wavelength of 460 nm using a Multifunction Microplate Reader (Synergy 4, Biotek). All measurements were carried out at least in duplicate.

Assay [1] addresses T2, recombinant human DPP9 (rhDPP9) (Homo sapiens, UniProt Q86TI2).
T2 construct: purchased R&S system (so in the source)
Briefly: DPP9 enzymatic activity assay. To be noted: H-Gly-Pro-AMC substrate. As to the method:
7-Amino-4-Methylcoumarin (AMC) release was detected by measuring fluorescence at Ex/Em 380/460 nm using a Multifunction Microplate Reader (Synergy 4, Biotek). All measurements were carried out in triplicate.

Assay [2] addresses T3, recombinant human DPPIV (rhDPPIV) (Homo sapiens, UniProt P27487).
T3 construct: purchased R&S system (so in the source)
Briefly: DPPIV enzymatic activity assay. To be noted: H-Gly-Pro-pNA substrate.

Assay [3] addresses T4, recombinant human FAPα (rhFAPα) (Homo sapiens, UniProt Q12884).
T4 construct: purchased R&S system (so in the source)
T4 sequence (Q12884 1-760): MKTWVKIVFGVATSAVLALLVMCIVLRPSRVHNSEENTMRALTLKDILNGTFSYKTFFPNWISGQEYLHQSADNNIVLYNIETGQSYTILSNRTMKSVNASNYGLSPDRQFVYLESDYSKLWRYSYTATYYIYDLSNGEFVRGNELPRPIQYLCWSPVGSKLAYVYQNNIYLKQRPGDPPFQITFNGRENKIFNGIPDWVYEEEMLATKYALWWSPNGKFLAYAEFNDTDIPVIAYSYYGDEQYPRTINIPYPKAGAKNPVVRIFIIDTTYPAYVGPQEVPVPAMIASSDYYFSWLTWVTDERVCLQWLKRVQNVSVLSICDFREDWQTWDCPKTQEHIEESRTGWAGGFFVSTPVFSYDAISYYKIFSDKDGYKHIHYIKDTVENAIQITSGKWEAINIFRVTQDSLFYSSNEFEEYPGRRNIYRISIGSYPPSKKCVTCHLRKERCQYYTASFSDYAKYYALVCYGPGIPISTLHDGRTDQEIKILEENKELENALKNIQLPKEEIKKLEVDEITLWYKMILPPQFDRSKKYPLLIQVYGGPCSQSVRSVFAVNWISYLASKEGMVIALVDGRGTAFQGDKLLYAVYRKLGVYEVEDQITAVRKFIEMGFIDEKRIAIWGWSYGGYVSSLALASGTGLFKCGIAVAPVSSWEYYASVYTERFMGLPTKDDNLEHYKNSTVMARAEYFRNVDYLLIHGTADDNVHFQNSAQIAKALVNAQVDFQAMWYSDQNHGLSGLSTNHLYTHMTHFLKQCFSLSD
Briefly: FAPα enzymatic exopeptidase (dipeptidase) activity assay. Particulars: for inhibition at 1 µM: read-out: rhFAPα (% exo inh @ 1 μM).

Setting [4] is: Table 2, exopeptidase, Z-Gly-Pro-AMC, read-out: rhFAPα (exo IC50).
Where [5] appears, read: Table 3, exopeptidase, read-out: rhFAPα (exo IC50).
Setting [6] is: 1 μM test compound, Z-Gly-Pro-AMC substrate.

T2 sequence (Q86TI2 whole entry): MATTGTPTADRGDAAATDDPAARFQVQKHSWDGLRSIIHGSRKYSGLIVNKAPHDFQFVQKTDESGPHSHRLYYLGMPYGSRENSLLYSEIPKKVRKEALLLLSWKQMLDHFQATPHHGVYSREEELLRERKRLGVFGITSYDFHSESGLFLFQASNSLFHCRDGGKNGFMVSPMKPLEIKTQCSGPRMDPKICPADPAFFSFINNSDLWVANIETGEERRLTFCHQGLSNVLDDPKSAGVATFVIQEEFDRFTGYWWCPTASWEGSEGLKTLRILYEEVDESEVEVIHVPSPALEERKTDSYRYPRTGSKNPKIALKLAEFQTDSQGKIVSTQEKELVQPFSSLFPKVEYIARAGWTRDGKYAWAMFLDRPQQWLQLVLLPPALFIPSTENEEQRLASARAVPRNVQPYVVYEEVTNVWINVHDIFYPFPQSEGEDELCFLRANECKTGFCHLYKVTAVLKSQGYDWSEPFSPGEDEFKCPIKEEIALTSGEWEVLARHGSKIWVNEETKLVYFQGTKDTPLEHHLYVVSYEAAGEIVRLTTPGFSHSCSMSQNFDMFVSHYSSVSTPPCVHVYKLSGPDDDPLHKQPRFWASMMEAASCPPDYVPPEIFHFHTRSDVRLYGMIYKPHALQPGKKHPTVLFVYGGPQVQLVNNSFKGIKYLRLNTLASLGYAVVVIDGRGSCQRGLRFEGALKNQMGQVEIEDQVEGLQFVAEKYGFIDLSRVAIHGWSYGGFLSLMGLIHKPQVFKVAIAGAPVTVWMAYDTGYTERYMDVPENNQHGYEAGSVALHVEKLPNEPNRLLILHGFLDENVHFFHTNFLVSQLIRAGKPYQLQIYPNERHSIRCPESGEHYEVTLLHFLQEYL
T3 sequence (P27487 whole entry): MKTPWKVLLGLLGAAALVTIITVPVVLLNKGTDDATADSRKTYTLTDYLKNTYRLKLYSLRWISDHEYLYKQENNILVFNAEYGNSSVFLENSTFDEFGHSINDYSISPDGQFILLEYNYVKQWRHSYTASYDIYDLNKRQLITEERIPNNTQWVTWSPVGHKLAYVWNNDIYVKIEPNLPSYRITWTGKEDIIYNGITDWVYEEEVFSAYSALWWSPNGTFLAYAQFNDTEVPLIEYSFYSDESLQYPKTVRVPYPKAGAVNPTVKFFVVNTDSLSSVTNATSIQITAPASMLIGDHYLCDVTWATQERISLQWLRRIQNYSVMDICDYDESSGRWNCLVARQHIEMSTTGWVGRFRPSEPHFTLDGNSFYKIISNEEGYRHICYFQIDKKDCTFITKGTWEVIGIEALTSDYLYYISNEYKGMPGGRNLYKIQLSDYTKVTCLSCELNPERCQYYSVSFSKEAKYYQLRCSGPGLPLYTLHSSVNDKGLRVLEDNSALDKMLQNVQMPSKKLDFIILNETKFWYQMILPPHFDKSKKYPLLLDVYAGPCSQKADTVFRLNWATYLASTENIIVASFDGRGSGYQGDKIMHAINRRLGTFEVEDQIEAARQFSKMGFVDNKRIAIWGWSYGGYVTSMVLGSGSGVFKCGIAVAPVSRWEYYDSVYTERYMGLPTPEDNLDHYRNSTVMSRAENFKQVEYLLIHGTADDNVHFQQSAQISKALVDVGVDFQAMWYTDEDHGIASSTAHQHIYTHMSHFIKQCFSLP
T1 sequence (P28843 37-760 limits assumed): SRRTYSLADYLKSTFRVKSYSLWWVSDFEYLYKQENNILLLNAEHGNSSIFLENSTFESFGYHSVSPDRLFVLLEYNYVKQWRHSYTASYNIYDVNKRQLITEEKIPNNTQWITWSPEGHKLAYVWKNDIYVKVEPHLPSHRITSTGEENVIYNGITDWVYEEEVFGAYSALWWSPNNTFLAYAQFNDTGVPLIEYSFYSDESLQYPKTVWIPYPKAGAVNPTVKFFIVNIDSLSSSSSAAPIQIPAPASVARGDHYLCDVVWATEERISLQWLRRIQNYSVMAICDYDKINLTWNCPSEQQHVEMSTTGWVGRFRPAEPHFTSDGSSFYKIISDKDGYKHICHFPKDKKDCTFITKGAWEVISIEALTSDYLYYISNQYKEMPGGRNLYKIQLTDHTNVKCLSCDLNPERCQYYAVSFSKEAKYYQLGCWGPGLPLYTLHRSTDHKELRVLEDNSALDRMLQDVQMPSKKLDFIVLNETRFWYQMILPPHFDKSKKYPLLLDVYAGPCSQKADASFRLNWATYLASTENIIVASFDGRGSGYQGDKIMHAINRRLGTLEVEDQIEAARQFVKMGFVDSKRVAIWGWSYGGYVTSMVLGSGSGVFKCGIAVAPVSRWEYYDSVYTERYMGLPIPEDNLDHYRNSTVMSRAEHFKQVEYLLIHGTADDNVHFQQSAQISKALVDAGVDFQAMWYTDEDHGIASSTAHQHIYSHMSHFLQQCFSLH

`N#C[C@@H]1CC(F)(F)CN1C(=O)CNC(=O)c1ccncc1-c1ccccc1` [Compound 13, (S)—N-(2-(2-cyano-4,4-difluoropyrrolidin-1-yl)-2-oxoethyl)-3-phenylisonicotinamide]: the IC50 (usually the midpoint of a concentration-inhibition curve) at mouse plasma DPPIV is over 10 µM; in assay [1] it was 1 to 10 µM; in assay [2] it was over 10 µM; in assay [3] (setting [4]), under 1000 nM; in assay [3] (setting [5]) it was under 1000 nM. Moreover, the inhibition at 1 µM in assay [3] was over 50%.
As to `N#C[C@@H]1CC(F)(F)CN1C(=O)CNC(=O)c1ccncc1N1CCOCC1` [Compound 88, N-[2-[(2S)-2-cyano-4,4-difluoro-pyrrolidin-1-yl]-2-oxo-ethyl]-3-morpholino-pyridine-4-carboxamide], the IC50 at mouse plasma DPPIV is 1 to 10 µM; in assay [1], 1 to 10 µM; in assay [2], 1 to 10 µM; in assay [3] (setting [4]), under 1000 nM; in assay [3] (setting [5]), under 1000 nM. The inhibition at 1 µM in assay [3] (setting [6]) was over 50%.
For the compound `N#C[C@@H]1CC(F)(F)CN1C(=O)CNC(=O)c1c[nH]c(=O)c2ccccc12` [Example 1, (S)—N-(2-(2-cyano-4,4-difluoropyrrolidin-1-yl)-2-oxoethyl)-1-oxo-1,2-dihydroisoquinoline-4-carboxamide], the IC50 was under 1 µM at mouse plasma DPPIV; 1 to 10 µM in assay [1]; 1 to 10 µM in assay [2]; under 1000 nM in assay [3] (setting [4]); under 1000 nM in assay [3] (setting [5]).
Turning to `N#C[C@@H]1CC(F)(F)CN1C(=O)CNC(=O)c1c[nH]c(=O)cc1-c1ccc(F)cc1` [Compound 109, (S)—N-(2-(2-cyano-4,4-difluoropyrrolidin-1-yl)-2-oxoethyl)-4-(4-fluorophenyl)-6-oxo-1,6-dihydropyridine-3-carboxamide], the IC50 is 1 to 10 µM on mouse plasma DPPIV; 1 to 10 µM in assay [1]; 1 to 10 µM in assay [2]; under 1000 nM in assay [3] (setting [4]); under 1000 nM in assay [3] (setting [5]). Besides, the inhibition at 1 µM in assay [3] is over 50%.
Consider `N#C[C@@H]1CC(F)(F)CN1C(=O)CNC(=O)c1c[nH]c(=O)c2ccc(F)cc12` [Compound 26, (S)—N-(2-(2-cyano-4,4-difluoropyrrolidin-1-yl)-2-oxoethyl)-6-fluoro-1-oxo-1,2-dihydroisoquinoline-4-carboxamide], for which the half-maximal inhibitory concentration (IC50) on mouse plasma DPPIV was under 1 µM; in assay [1] it was 1 to 10 µM; in assay [2], 1 to 10 µM; in assay [3] (setting [4]), under 1000 nM; in assay [3] (setting [5]), under 1000 nM. For the same compound, the inhibition at 1 µM in assay [3] (setting [6]) was over 50%.
In the case of `N#C[C@@H]1CC(F)(F)CN1C(=O)CNC(=O)c1ccncc1Cc1ccccc1` [Compound 50, (S)-3-benzyl-N-(2-(2-cyano-4,4-difluoropyrrolidin-1-yl)-2-oxoethyl)isonicotinamide], the IC50 is under 1 µM in assay [1], over 10 µM in assay [2], under 1000 nM in assay [3] (setting [4]) and under 1000 nM in assay [3] (setting [5]). Also, the inhibition at 1 µM in assay [3] (setting [6]) is over 50%.
For the compound `C=Cc1cnccc1C(=O)NCC(=O)N1CC(F)(F)C[C@H]1C#N` [Compound 40, (S)—N-(2-(2-cyano-4,4-difluoropyrrolidin-1-yl)-2-oxoethyl)-3-vinylisonicotinamide], the IC50 at mouse plasma DPPIV is over 10 µM; in assay [1], over 10 µM; in assay [2], over 10 µM; in assay [3] (setting [4]), under 1000 nM; in assay [3] (setting [5]) it was under 1000 nM. In addition, the inhibition at 1 µM in assay [3] (setting [6]) is over 50%.
For the compound `N#C[C@@H]1CC(F)(F)CN1C(=O)CNC(=O)c1ccncc1-c1cc(Cl)ccc1F` [Compound 54, (S)-3-(5-chloro-2-fluorophenyl)-N-(2-(2-cyano-4,4-difluoropyrrolidin-1-yl)-2-oxoethyl)isonicotinamide], the IC50 is over 10 µM on mouse plasma DPPIV; over 10 µM in assay [1]; over 10 µM in assay [2]; under 1000 nM in assay [3] (setting [4]); under 1000 nM in assay [3] (setting [5]). Moreover, the inhibition at 1 µM in assay [3] (setting [6]) was over 50%.
As to `N#C[C@@H]1CC(F)(F)CN1C(=O)CNC(=O)c1ccncc1C1=CCNCC1` [Compound 105, (S)—N-(2-(2-cyano-4,4-difluoropyrrolidin-1-yl)-2-oxoethyl)-1′,2′,3′,6′-tetrahydro-[3,4′-bipyridine]-4-carboxamide 2,2,2-trifluoroacetate], the IC50 is over 10 µM on mouse plasma DPPIV; over 10 µM in assay [1]; over 10 µM in assay [2]; under 1000 nM in assay [3] (setting [4]); under 1000 nM in assay [3] (setting [5]). In addition, the inhibition at 1 µM in assay [3] was over 50%.
Turning to `N#C[C@@H]1CC(F)(F)CN1C(=O)CNC(=O)c1ccncc1C1CC1` [Compound 24, (S)—N-(2-(2-cyano-4,4-difluoropyrrolidin-1-yl)-2-oxoethyl)-3-cyclopropylisonicotinamide], the IC50 on mouse plasma DPPIV is over 10 µM; in assay [1] it was 1 to 10 µM; in assay [2], over 10 µM; in assay [3] (setting [4]), under 1000 nM; in assay [3] (setting [5]), under 1000 nM. Moreover, the inhibition at 1 µM in assay [3] is over 50%.
For `N#C[C@@H]1CC(F)(F)CN1C(=O)CNC(=O)c1c[nH]c(=O)c(-c2ccccc2)c1` [Compound 14, (S)—N-(2-(2-cyano-4,4-difluoropyrrolidin-1-yl)-2-oxoethyl)-6-oxo-5-phenyl-1,6-dihydropyridine-3-carboxamide], the IC50 on mouse plasma DPPIV was 1 to 10 µM; in assay [1] it was 1 to 10 µM; in assay [2], over 10 µM; in assay [3] (setting [4]), under 1000 nM; in assay [3] (setting [5]), under 1000 nM. Moreover, the inhibition at 1 µM in assay [3] (setting [6]) is over 50%.
On to `C=C(c1ccccc1)c1cnccc1C(=O)NCC(=O)N1CC(F)(F)C[C@H]1C#N` [Compound 122, (S)—N-(2-(2-cyano-4,4-difluoropyrrolidin-1-yl)-2-oxoethyl)-3-(1-phenylvinyl)isonicotinamide], for which the IC50 is over 10 µM on mouse plasma DPPIV; over 10 µM in assay [1]; over 10 µM in assay [2]; under 1000 nM in assay [3] (setting [4]); under 1000 nM in assay [3] (setting [5]). Moreover, in assay [3], the inhibition at 1 µM is over 50%.
Regarding `N#C[C@@H]1CC(F)(F)CN1C(=O)CNC(=O)c1ccncc1-c1ccc(F)cc1` [Compound 52, (S)—N-(2-(2-cyano-4,4-difluoropyrrolidin-1-yl)-2-oxoethyl)-3-(4-fluorophenyl)isonicotinamide], the IC50 on mouse plasma DPPIV is over 10 µM; in assay [1], over 10 µM; in assay [2] it was over 10 µM; in assay [3] (setting [4]) it was under 1000 nM; in assay [3] (setting [5]) it was under 1000 nM. In addition, the inhibition at 1 µM in assay [3] is over 50%.
For the compound `Cn1ncc2c(-c3cnccc3C(=O)NCC(=O)N3CC(F)(F)C[C@H]3C#N)cccc21` [Compound 87, (S)—N-(2-(2-cyano-4,4-difluoropyrrolidin-1-yl)-2-oxoethyl)-3-(1-methyl-1H-indazol-4-yl)isonicotinamide], the IC50 was 1 to 10 µM on mouse plasma DPPIV; over 10 µM in assay [1]; over 10 µM in assay [2]; under 1000 nM in assay [3] (setting [4]); under 1000 nM in assay [3] (setting [5]). For the same compound, in assay [3] (setting [6]), the inhibition at 1 µM was over 50%.
Turning to `N#C[C@@H]1CC(F)(F)CN1C(=O)CNC(=O)c1ccncc1-c1cc(F)cc(F)c1` [Compound 47, (S)—N-(2-(2-cyano-4,4-difluoropyrrolidin-1-yl)-2-oxoethyl)-3-(3,5-difluorophenyl)isonicotinamide], the IC50 on mouse plasma DPPIV is over 10 µM; in assay [1], over 10 µM; in assay [2], over 10 µM; in assay [3], under 1000 nM; in assay [3] (read-out: rhFAPα (exo IC50), Table 3, exopeptidase), under 1000 nM. Moreover, the inhibition at 1 µM in assay [3] was over 50%.

(Values after patent US11780821B2, “Inhibitors of fibroblast activation protein” (Praxis Biotech LLC, priority 2017, dated 2023).)
